Columns and labels:
Assay type in all cases: in vivo
rapeseed = test: Test Example 3: soil treatment, effect on crop; g: rapeseed; conditions: soil treatment, treatment dosage 80 g/ha
From the text: (§1) Weedkilling Efficacy Test Through Soil Treatment
(§2) Sterilized diluvial soil was introduced into 21 cm long, 13 cm wide, 7 cm deep plastic boxes, and seeds of crabgrass, green foxtail, barnyard grass, wild oat, black-grass, Italian ryegrass, common wind-grass, Indian mallow, redroot pigweed, fig-leafed goosefoot, chickweed, catchweed, birds-eye speedwell, corn, soybean, rice, wheat, beet and rapeseed were each spot-sown, and covered with about 1.5 cm of soil. Next, emulsions of compounds of the present invention prepared according to compounding example 2 were diluted with water to give the specified dosages, and applied uniformly onto the soil surface with a small sprayer. The plants were grown by placing the plastic boxes in a greenhouse at 25 to 30° C., and 3 weeks after the pesticide treatment the effect on each type of plant was investigated on the basis of the assessment criteria of test example 1.
(§3) A: barnyard grass, B: bulrush, C: oval-leafed pondweed, D: crabgrass, E: green foxtail, F: barnyard grass, G: wild oat, H: black-grass, I: Italian ryegrass, J: common wind-grass, K: Indian mallow, L: redroot pigweed, M: fig-leafed goosefoot, N: chickweed, O: catchweed, p: birds-eye speedwell, a: transplanted rice, b: directly sown rice, c: corn, d: soybean, e: wheat, f: beet, g: rapeseed
(§4) Further, pesticide dosage (g/ha) indicates the concentration regulated such that treatment was with only the stated number of grams (g), when calculated per hectare (ha).

common wind-grass = test: Test Example 3: weedkilling efficacy through soil treatment; J: common wind-grass; conditions: soil treatment, treatment dosage 80 g/ha
From the text: as §1, §2, §3, §4

Italian ryegrass = test: Test Example 3: weedkilling efficacy through soil treatment; I: Italian ryegrass; conditions: soil treatment
In short: (§5)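 Crop and weed responses were judged three weeks after a uniform surface spray of the water-diluted emulsion at the given g/ha rate. Seeds sat beneath about 1.5 cm of sterilized diluvial soil, and boxes stood in a greenhouse at 25 to 30° C.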

black-grass = test: Test Example 3: weedkilling efficacy through soil treatment; H: black-grass; conditions: soil treatment
In short: as §5

wheat = test: Test Example 3: soil treatment, effect on crop; e: wheat; conditions: soil treatment
In short: as §5

barnyard grass [1] = test: Test Example 1: weedkilling efficacy, preemergent weed treatment in the submerged state; A: barnyard grass; conditions: treatment dosage 252 g/ha
In short: (§6)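 Pre-emergence application onto floodwater (4 cm, alluvial soil) on the day of sowing, dose expressed as g/ha from diluted emulsion formulation. Weeds sown with 2.5-leaf transplanted rice as crop; plants held at 25–30 °C in greenhouse and scored against assessment criteria after 3 weeks.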

soybean = test: Test Example 3: soil treatment, effect on crop; d: soybean; conditions: soil treatment, treatment dosage 315 g/ha
In short: as §5

bulrush [2] = test: Test Example 1: weedkilling efficacy, preemergent weed treatment in the submerged state; B: bulrush; conditions: treatment dosage 252 g/ha
In short: as §6

Indian mallow = test: Test Example 3: weedkilling efficacy through soil treatment; K: Indian mallow; conditions: soil treatment, treatment dosage 315 g/ha
In short: as §5

oval-leafed pondweed [3] = test: Test Example 1: weedkilling efficacy, preemergent weed treatment in the submerged state; C: oval-leafed pondweed; conditions: treatment dosage 252 g/ha
In short: as §6

barnyard grass [4] = test: Test Example 2: weedkilling efficacy, growth period weed treatment in the submerged state; A: barnyard grass; conditions: treatment dosage 252 g/ha
In short: (§7)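 Weeds treated at the 1-2 leaf stage by application of diluted emulsion onto floodwater (4 cm depth, alluvial soil) at specified g/ha. Grown in greenhouse at 25 to 30° C; herbicidal effect rated three weeks after treatment.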

oval-leafed pondweed [5] = test: Test Example 2: weedkilling efficacy, growth period weed treatment in the submerged state; C: oval-leafed pondweed; conditions: treatment dosage 252 g/ha
In short: as §7

green foxtail = test: Test Example 3: weedkilling efficacy through soil treatment; E: green foxtail; conditions: soil treatment, treatment dosage 315 g/ha
In short: as §5

fig-leafed goosefoot = test: Test Example 3: weedkilling efficacy through soil treatment; M: fig-leafed goosefoot; conditions: soil treatment, treatment dosage 315 g/ha
In short: as §5

birds-eye speedwell = test: Test Example 3: weedkilling efficacy through soil treatment; p: birds-eye speedwell; conditions: soil treatment, treatment dosage 315 g/ha
From the text: as §1, §2, §3, §4

chickweed = test: Test Example 3: weedkilling efficacy through soil treatment; N: chickweed; conditions: soil treatment, treatment dosage 315 g/ha
In short: as §5

corn = test: Test Example 3: soil treatment, effect on crop; c: corn; conditions: soil treatment, treatment dosage 315 g/ha
In short: as §5

crabgrass = test: Test Example 3: weedkilling efficacy through soil treatment; D: crabgrass; conditions: soil treatment, treatment dosage 315 g/ha
In short: as §5

directly sown rice = test: Test Example 3: soil treatment, effect on crop; b: directly sown rice; conditions: soil treatment, treatment dosage 315 g/ha
In short: as §5

catchweed = test: Test Example 3: weedkilling efficacy through soil treatment; O: catchweed; conditions: soil treatment, treatment dosage 315 g/ha
From the text: as §1, §2, §3, §4

bulrush [6] = test: Test Example 2: weedkilling efficacy, growth period weed treatment in the submerged state; B: bulrush; conditions: treatment dosage 252 g/ha
In short: as §7

beet = test: Test Example 3: soil treatment, effect on crop; f: beet; conditions: soil treatment, treatment dosage 315 g/ha
In short: as §5

transplanted rice = test: Test Example 1: preemergent weed treatment in the submerged state, effect on crop; a: transplanted rice; conditions: treatment dosage 252 g/ha
In short: as §6

wild oat = test: Test Example 3: weedkilling efficacy through soil treatment; G: wild oat; conditions: soil treatment, treatment dosage 315 g/ha
In short: as §5

redroot pigweed = test: Test Example 3: weedkilling efficacy through soil treatment; L: redroot pigweed; conditions: soil treatment, treatment dosage 315 g/ha
In short: as §5

| Compound | A: barnyard grass, weed kill grade (barnyard grass [1]) | d: soybean, effect on crop grade (soybean) | e: wheat, effect on crop grade (wheat; treatment dosage 315 g/ha) | B: bulrush, weed kill grade (bulrush [2]) | K: Indian mallow, weedkilling efficacy grade (Indian mallow) | C: oval-leafed pondweed, weed kill grade (oval-leafed pondweed [3]) | A (barnyard grass) weedkilling efficacy grade (barnyard grass [4]) | C (oval-leafed pondweed) weedkilling efficacy grade (oval-leafed pondweed [5]) | E: green foxtail, weedkilling efficacy grade (green foxtail) | M: fig-leafed goosefoot, weedkilling efficacy grade (fig-leafed goosefoot) | P: birds-eye speedwell, weedkilling efficacy grade (birds-eye speedwell) | N: chickweed, weedkilling efficacy grade (chickweed) | I: Italian ryegrass, weedkilling efficacy grade (Italian ryegrass; treatment dosage 315 g/ha) | c: corn, effect on crop grade (corn) | H: black-grass, weedkilling efficacy grade (black-grass; treatment dosage 315 g/ha) | D: crabgrass, weedkilling efficacy grade (crabgrass) | b: directly sown rice, effect on crop grade (directly sown rice) | O: catchweed, weedkilling efficacy grade (catchweed) | B (bulrush) weedkilling efficacy grade (bulrush [6]) | f: beet, effect on crop grade (beet) | also measured |
| --- | --- | --- | --- | --- | --- | --- | --- | --- | --- | --- | --- | --- | --- | --- | --- | --- | --- | --- | --- | --- | --- |
| CC(C)(C(=O)Nc1nc(C(F)(F)F)cs1)N1COCN(c2ccccc2)C1=O [A-1-06] | – | – | – | – | – | – | – | – | – | – | – | – | – | – | – | – | – | – | – | – | g: rapeseed, effect on crop grade (rapeseed): 4 (weed kill ratio 70% or more, less than 90%); J: common wind-grass, weedkilling efficacy grade (common wind-grass): 5 (weed kill ratio 90% or more, (practically complete withering)); I: Italian ryegrass, weedkilling efficacy grade (Italian ryegrass; treatment dosage 80 g/ha): 5 (weed kill ratio 90% or more, (practically complete withering)); H: black-grass, weedkilling efficacy grade (black-grass; treatment dosage 80 g/ha): 5 (weed kill ratio 90% or more, (practically complete withering)) |
| CC(C)(C(=O)Nc1ccnc(Cl)n1)N1COCN(c2ccccc2)C1=O [A-1-20] | – | – | – | – | – | – | – | – | – | – | – | – | – | – | – | – | – | – | – | – | e: wheat, effect on crop grade (wheat; treatment dosage 80 g/ha): 1 (weed kill ratio 5% or more, less than 20%); g: rapeseed, effect on crop grade (rapeseed): 1 (weed kill ratio 5% or more, less than 20%); J: common wind-grass, weedkilling efficacy grade (common wind-grass): 5 (weed kill ratio 90% or more, (practically complete withering)); I: Italian ryegrass, weedkilling efficacy grade (Italian ryegrass; treatment dosage 80 g/ha): 5 (weed kill ratio 90% or more, (practically complete withering)); H: black-grass, weedkilling efficacy grade (black-grass; treatment dosage 80 g/ha): 5 (weed kill ratio 90% or more, (practically complete withering)) |
| CC(C)(C(=O)Nc1cc(F)ccn1)N1COCN(c2ccccc2)C1=O [A-2-03] | 5 (weed kill ratio 90% or more, (practically complete withering)) | 0 (weed kill ratio 5% or less (practically no effect)) | 2 (weed kill ratio 20% or more, less than 40%) | 5 (weed kill ratio 90% or more, (practically complete withering)) | 0 (weed kill ratio 5% or less (practically no effect)) | 5 (weed kill ratio 90% or more, (practically complete withering)) | 5 (weed kill ratio 90% or more, (practically complete withering)) | 3 (weed kill ratio 40% or more, less than 70%) | 5 (weed kill ratio 90% or more, (practically complete withering)) | 4 (weed kill ratio 70% or more, less than 90%) | 5 (weed kill ratio 90% or more, (practically complete withering)) | 4 (weed kill ratio 70% or more, less than 90%) | 5 (weed kill ratio 90% or more, (practically complete withering)) | 3 (weed kill ratio 40% or more, less than 70%) | 5 (weed kill ratio 90% or more, (practically complete withering)) | 5 (weed kill ratio 90% or more, (practically complete withering)) | 5 (weed kill ratio 90% or more, (practically complete withering)) | 5 (weed kill ratio 90% or more, (practically complete withering)) | 5 (weed kill ratio 90% or more, (practically complete withering)) | 0 (weed kill ratio 5% or less (practically no effect)) | a: transplanted rice, effect on crop grade (transplanted rice): 1 (weed kill ratio 5% or more, less than 20%); G: wild oat, weedkilling efficacy grade (wild oat): 5 (weed kill ratio 90% or more, (practically complete withering)); L: redroot pigweed, weedkilling efficacy grade (redroot pigweed): 4 (weed kill ratio 70% or more, less than 90%) |
| CC(C)(C(=O)Nc1cccc(I)n1)N1COCN(c2ccccc2)C1=O [A-2-11] | 5 (weed kill ratio 90% or more, (practically complete withering)) | 0 (weed kill ratio 5% or less (practically no effect)) | 1 (weed kill ratio 5% or more, less than 20%) | 5 (weed kill ratio 90% or more, (practically complete withering)) | 0 (weed kill ratio 5% or less (practically no effect)) | 5 (weed kill ratio 90% or more, (practically complete withering)) | 4 (weed kill ratio 70% or more, less than 90%) | 3 (weed kill ratio 40% or more, less than 70%) | 5 (weed kill ratio 90% or more, (practically complete withering)) | 3 (weed kill ratio 40% or more, less than 70%) | 4 (weed kill ratio 70% or more, less than 90%) | 4 (weed kill ratio 70% or more, less than 90%) | 5 (weed kill ratio 90% or more, (practically complete withering)) | 0 (weed kill ratio 5% or less (practically no effect)) | 5 (weed kill ratio 90% or more, (practically complete withering)) | 5 (weed kill ratio 90% or more, (practically complete withering)) | 3 (weed kill ratio 40% or more, less than 70%) | 2 (weed kill ratio 20% or more, less than 40%) | 5 (weed kill ratio 90% or more, (practically complete withering)) | 2 (weed kill ratio 20% or more, less than 40%) | a: transplanted rice, effect on crop grade (transplanted rice): 0 (weed kill ratio 5% or less (practically no effect)); G: wild oat, weedkilling efficacy grade (wild oat): 2 (weed kill ratio 20% or more, less than 40%); L: redroot pigweed, weedkilling efficacy grade (redroot pigweed): 0 (weed kill ratio 5% or less (practically no effect)) |
| Cc1ccnc(NC(=O)C(C)(C)N2COCN(c3ccccc3)C2=O)c1 [A-2-37] | 5 (weed kill ratio 90% or more, (practically complete withering)) | 0 (weed kill ratio 5% or less (practically no effect)) | 0 (weed kill ratio 5% or less (practically no effect)) | 5 (weed kill ratio 90% or more, (practically complete withering)) | 0 (weed kill ratio 5% or less (practically no effect)) | 5 (weed kill ratio 90% or more, (practically complete withering)) | 5 (weed kill ratio 90% or more, (practically complete withering)) | 3 (weed kill ratio 40% or more, less than 70%) | 4 (weed kill ratio 70% or more, less than 90%) | 3 (weed kill ratio 40% or more, less than 70%) | 5 (weed kill ratio 90% or more, (practically complete withering)) | 1 (weed kill ratio 5% or more, less than 20%) | 5 (weed kill ratio 90% or more, (practically complete withering)) | 1 (weed kill ratio 5% or more, less than 20%) | 3 (weed kill ratio 40% or more, less than 70%) | 5 (weed kill ratio 90% or more, (practically complete withering)) | 2 (weed kill ratio 20% or more, less than 40%) | 0 (weed kill ratio 5% or less (practically no effect)) | 5 (weed kill ratio 90% or more, (practically complete withering)) | 0 (weed kill ratio 5% or less (practically no effect)) | a: transplanted rice, effect on crop grade (transplanted rice): 0 (weed kill ratio 5% or less (practically no effect)); G: wild oat, weedkilling efficacy grade (wild oat): 3 (weed kill ratio 40% or more, less than 70%); L: redroot pigweed, weedkilling efficacy grade (redroot pigweed): 1 (weed kill ratio 5% or more, less than 20%) |
